Results from patent US6437138B1, “3-pyridyloxymethyl heterocyclic ether compounds useful in controlling chemical synaptic transmission” (priority 1996, dated 2002).
Where a name gives a salt, the structure may show the parent alone. Read-outs that look alike come from different tables or passages of the source.

Columns and labels:
[1] = target: neuronal nicotinic cholinergic channel receptors (Rattus norvegicus, UniProt P09483+P12390); details: read-out: Binding Ki
Method: A. Protocol For Determination of Nicotinic Cholinergic Channel Receptor Binding Potencies of Ligands
Binding of [^3H]-cytisine ([^3H]-CYT) to nicotinic receptors was accomplished using crude synaptic membrane preparations from whole rat brain (Pabreza et al., Molecular Pharmacol, 1990, 39:9). Washed membranes were stored at −80° C. prior to use. Frozen aliquots were slowly thawed and resuspended in 20 volumes of buffer (containing: 120 mM NaCl, 5 mM KCl, 2 mM MgCl2, 2 mM CaCl2 and 50 mM Tris-Cl, pH 7.4 @ 4° C.). After centrifuging at 20,000×g for 15 minutes, the pellets were resuspended in 30 volumes of buffer. Homogenate (containing 125-150 μg protein) was added to triplicate tubes containing concentrations of test compound and [^3H]-CYT (1.25 nM) in a final volume of 500 μL. Samples were incubated for 60 minutes at 4° C., then rapidly filtered through Whatman GF/B filters presoaked in 0.5% polyethyleneimine using 3×4 mL of ice-cold buffer. The filters are counted in 4 mL of Ecolume® (ICN). Nonspecific binding was determined in the presence of […] (−)-nicotine and values were expressed as a percentage of total binding.

[2] = target: neuronal nicotinic cholinergic channels in IMR-32 cells (Homo sapiens, UniProt P30926+P32297); assay: 86Rb+ efflux in IMR-32 cells (activation, or inhibition of efflux elicited by (S)-nicotine); type: cell-based; details: for inhibition at 1 µM / inhibition at 10 µM / Emax: IMR-32; for inhibition at 10 µM: single dose 10 μM; for EC50 / IMR-32 maximal response / Emax: 86Rb+ efflux; for EC50: activation; for IMR-32 maximal response / Emax: percent relative to the response elicited by 100 μM (S)-nicotine; for Emax: read-out: IMR-32 maximal response
From the text: For the purpose of directly evaluating the ability of test compounds to functionally activate or inhibit certain subtypes of neuronal nicotinic cholinergic channels, an assay to determine ^86Rb^+Efflux in IMR-32 cells was employed (Protocol B below).
B. Protocols for the Determination of Functional Effects of Cholinerzic Channel Receptor Ligands on Synaptic Transmission
Cells of the IMR-32 human neuroblastoma clonal cell line (ATCC, Rockville, Md.) were maintained in a log phase of growth according to established procedures (Lukas, 1993). Experimental cells were seeded at a density of 500,000 cells/ml into a 24-well tissue culture dish. Plated cells were allowed to proliferate for at least 48 hours before loading with 2 μCi/ml of ^86Rb^+ (35 Ci/mmol) overnight at 37° C. The ^86Rb^+ efflux assays were performed according to previously published protocols (Lukas, R. J., J. Pharmacol. Exp. Ther., 265: 294-302, 1993) except serum-free Dulbecco's Modified Eagle's Medium was used during the ^86Rb^+ loading, rinsing, and agonist-induced efflux steps.
EC50 data and maximal responses (reported as percent relative to the response elicited by 100 μM (S)-nicotine) are shown for selected compounds of the invention. The inhibition data (given for a larger number of compounds) reflect inhibition of the efflux elicited by 100 μM (S)-nicotine for either a single dose (% inhibition at 1 μM or at 10 μM) or over a range of doses (IC50 of inhibition). […] This finding is in agreement with the results of others who have linked dopamine release, which is dependent upon the ion flux in synaptic transmission, to binding at nicotinic receptors (cf., for example, Lippiello and Caldwell, U.S. Pat. No. 5,242,935, issued Sep. 7, 1993; Caldwell and Lippiello, U.S. Pat. No. 5,248,690, issued Sep. 28, 1993; and Wonnacott et al., Prog. Brain Res., 79: 157-163 (1989)).

[3] = displacement of [3H]-cytisine (1.25 nM), whole rat brain membranes, Ki from IC50 by Cheng and Prusoff correction
[4] = inhibition of the efflux elicited by 100 μM (S)-nicotine, single dose 1 μM
[5] = inhibition of the efflux elicited by 100 μM (S)-nicotine

Sequence of neuronal nicotinic cholinergic channel receptors (P09483 31-630): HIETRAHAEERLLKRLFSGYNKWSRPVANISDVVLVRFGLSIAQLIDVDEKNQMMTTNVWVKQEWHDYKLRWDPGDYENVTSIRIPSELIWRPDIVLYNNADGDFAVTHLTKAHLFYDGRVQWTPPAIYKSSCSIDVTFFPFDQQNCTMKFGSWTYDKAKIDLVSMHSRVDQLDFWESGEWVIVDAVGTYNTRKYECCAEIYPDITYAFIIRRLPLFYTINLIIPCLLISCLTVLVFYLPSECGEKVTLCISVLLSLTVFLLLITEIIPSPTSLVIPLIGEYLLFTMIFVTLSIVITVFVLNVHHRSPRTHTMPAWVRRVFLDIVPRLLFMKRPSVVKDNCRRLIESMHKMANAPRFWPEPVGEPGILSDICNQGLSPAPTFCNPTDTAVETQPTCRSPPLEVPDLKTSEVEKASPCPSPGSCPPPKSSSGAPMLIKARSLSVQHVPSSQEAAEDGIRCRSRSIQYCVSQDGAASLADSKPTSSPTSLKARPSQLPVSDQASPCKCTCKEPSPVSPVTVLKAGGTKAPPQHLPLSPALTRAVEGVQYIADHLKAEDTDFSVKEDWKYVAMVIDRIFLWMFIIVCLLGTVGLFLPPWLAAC
Sequence of neuronal nicotinic cholinergic channel receptors (P12390 25-500): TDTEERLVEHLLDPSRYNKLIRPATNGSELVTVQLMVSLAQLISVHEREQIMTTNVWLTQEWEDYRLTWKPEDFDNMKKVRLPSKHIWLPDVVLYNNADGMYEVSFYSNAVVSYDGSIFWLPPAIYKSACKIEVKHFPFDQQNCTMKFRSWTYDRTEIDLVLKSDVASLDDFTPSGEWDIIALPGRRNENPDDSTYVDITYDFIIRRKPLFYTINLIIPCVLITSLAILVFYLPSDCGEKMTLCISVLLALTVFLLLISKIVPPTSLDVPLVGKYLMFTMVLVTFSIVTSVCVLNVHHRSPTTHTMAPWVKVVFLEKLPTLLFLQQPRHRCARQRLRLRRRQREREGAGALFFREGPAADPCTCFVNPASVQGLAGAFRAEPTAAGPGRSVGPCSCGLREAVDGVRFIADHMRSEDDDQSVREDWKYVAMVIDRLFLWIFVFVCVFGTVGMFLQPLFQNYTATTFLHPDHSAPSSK

CN1CCC[C@H]1COc1cncc(-c2ccco2)c1 [Example 5, 5-(2-Furanyl-3-(1-methyl-2-(S)-pyrrolidinylmethoxy)pyridine Dihydrochloride]
Ki [1, 3]: 0.19 nM
inhibition at 1 µM [2, 4]: 27%

CN1CCC[C@H]1COc1cncc(-c2ccc(F)c(Cl)c2)c1 [Example 42, 5-(3-Chloro-4-fluorolphenyl)-3-(1-methyl-2-(S)-pyrrolidinylmethoxy)pyridine Dihydrochloride]
Ki [1, 3]: 0.055 nM
inhibition at 1 µM [2, 4]: 38%

CN1CCC[C@H]1COc1cncc(-c2ccc(C(F)(F)F)cc2)c1 [Example 46, 5-(4-(Trifluoromethyl)phenyl)-3-(1)-methyl-2-(S)-pyrrolidinylmethoxy)pyridine Dihydrochloride]
Ki [1, 3]: 0.15 nM
inhibition at 1 µM [2, 4]: 37%

CN1CCC[C@H]1COc1cncc(-c2cc(C(F)(F)F)cc(C(F)(F)F)c2)c1 [Example 37, 5-(3,5-bis(Trifluoromehyl)phenyl)-3-(1-methyl-2-(S)-pyrrolidinylmethoxy)pyridine Dihydrochloride]
Ki [1, 3]: 2.4 nM
inhibition at 1 µM [2, 4]: 41%

CN1CCC[C@H]1COc1cncc(-c2ccccc2)c1.Cl.Cl [Example 90, 5-Phenyl-3-(1-methyl-2-(S)-pyrrolidinylmethoxy)pyridine Dihydrochloride]
Ki [1, 3]: 0.111 nM
melting point: 88 to 90 °C

CN1CCC[C@H]1COc1cncc(-c2cnc3ccccc3c2)c1 [Example 35, 5-(3-Ouinolinyl)-3-(1-methyl-2-(S)-pyrrolidinylmethoxy)pyridine Trihydrochloride]
Ki [1, 3]: 0.39 nM
inhibition at 1 µM [2, 4]: 34%

COC(=O)c1cncc(OC[C@@H]2CCCN2C)c1 [Example 27, 5-Methoxycarbonol-3-(1-methyl-2-(S)-pyrrolidinylmethoxy)pyridine Dihydrochloride]
Ki [1, 3]: 1.5 nM
inhibition at 1 µM [2, 4]: 26%

CN1CCC[C@H]1COc1cncc(-c2cccnc2)c1.Cl.Cl [Example 7, 5-(3-Pyridyl)-3-(1-methyl-2-(S)-pyrrolidinylmethoxy)pyridine Dihydrochloride]
Ki [1, 3]: 0.27 nM
melting point: 155 to 160 °C

5-Hexenyl-3-(1-methyl-2-(S)-pyrrolidinylmethoxy)pyridine Dihydrochloride [Example 12]
Ki [1, 3]: 0.32 nM
% Inhibition @ 1 μM [2, 4]: 25%

CN1CCC[C@H]1COc1cncc(CCc2ccncc2)c1 [Example 29, 5-(2-(4-Pyridinnyl)ethyl)-3-(1-methyl-2-(S)-pyrrolidinnylmethoxy)pyridine Trihydrochloride]
Ki [1, 3]: 0.064 nM
inhibition at 1 µM [2, 4]: 32%

CN1CCC[C@H]1COc1cncc(-c2ccccc2C=O)c1 [Example 44, 5-(2-Formylphenyl)-3-(1-methyl-2-(S)-pyrrolidinylmethoxy)pyridine Dihydrochloride]
Ki [1, 3]: 0.56 nM
inhibition at 1 µM [2, 4]: 30%
inhibition at 10 µM [2, 5]: 97%

CN1CCC[C@H]1COc1cncc(-c2cccc([N+](=O)[O-])c2)c1 [Example 1, 5-(3-Nitrophenyl)-3-(1-methyl-2-(S)-pyrrolidinylmethoxy)pyridine Dihydrochloride]
Ki [1, 3]: 0.46 nM
inhibition at 1 µM [2, 4]: 13%

CCCCC#Cc1cncc(OC[C@@H]2CCN2)c1.Cl.Cl [Example 58, 5-Hexynyl-3-(2-(S)-azetidinylmethoxy)pyridine Dihydrochloride]
Ki [1, 3]: 0.056 nM
EC50 [2]: 0.8 µM
IMR-32 maximal response [2]: 47%

CC(=O)c1cncc(OC[C@@H]2CCCN2C)c1 [Example 10, 5-Acetyl-3-(1-methyl-2-(S)-pyrrolidinylmethoxy)pyridine Dihydrochloride]
Ki [1, 3]: 1.2 nM
inhibition at 1 µM [2, 4]: 32%

CN1CCC[C@H]1COc1cncc(C(=O)N2CCCC2)c1 [Example 19, 5-(1-Pyrrolidinylcarbonyl)-3-(1)-methyl-2-(S)-pyrrolidinylmethoxy)pyridine Dihydrochloride]
Ki [1, 3]: 20 nM
inhibition at 1 µM [2, 4]: 14%

CN1CCC[C@H]1COc1cncc(-c2ccc3ccccc3c2)c1 [Example 31, 5-(2-Naphthalenyl-3-(1-methyl-2-(S)-pyrrolidinylmethoxy)pyridine Dihydrochloride]
Ki [1, 3]: 0.33 nM
inhibition at 1 µM [2, 4]: 37%

CN1CC[C@@H]1COc1cncc(-c2ccsc2)c1 [Example 91, 5-(3-Thienyl)-3-(1-methyl-2-(R)-azetdinylmethoxy)pyridine Dihydrochloride]
Ki [1]: 1.84 nM

CN1CCC[C@@H]1COc1cnc(Cl)c(-c2cncnc2)c1 [Example 180, 6-Chloro-3-(1-methyl-2-(R)-pyrrolidinylmethoxy)-5-pyrimidinylpyridine Hydrochloride]
Ki [1, 3]: 4.8 nM

CN1CCC[C@H]1COc1cncc(/C=C/c2ccccc2)c1 [Example 18, 5-trans-(2-Phenylethenyl)-3-(1-methyl-2-(S)-pyrrolidinylmethoxy)pyridine Dihydrochloride]
Ki [1, 3]: 0.24 nM
inhibition at 1 µM [2, 4]: 43%

CN1CCC[C@H]1COc1cncc(CCc2ccccc2)c1 [Example 21, 5-(2-Phenylethyl)-3-(1-methyl-2-(S)-pyrrolidinylmethoxy)pyridine Dihydrochloride]
Ki [1, 3]: 0.22 nM
inhibition at 1 µM [2, 4]: 22%

Cc1ccccc1-c1cncc(OC[C@@H]2CCCN2C)c1 [Example 45, 5-(2-Methylphenyl)-3-(1-methyl-2-(S)-pyrrolidinylmethoxy)pyridine Dihydrochloride]
Ki [1, 3]: 1.1 nM
inhibition at 1 µM [2, 4]: 41%
inhibition at 10 µM [2, 5]: 100%

CN1CCC[C@@H]1COc1cncc(-c2ccccc2)c1.Cl.Cl [Example 53, 5-Phenyl-3-(1-methyl-2-(R)-pyrrolidinylmethoxy)pyridine Dihydrochloride]
melting point: 89 to 90 °C
inhibition at 1 µM [2, 4]: 35%
inhibition at 10 µM [2, 5]: 100%

Cl.Cl.c1ccc(-c2cncc(OC[C@H]3CCCN3)c2)cc1 [Example 52, 5-Phenyl-3-(2-(R)-pyrrolidinylmethoxy)pyridine Dihydrochloride]
melting point: 129 to 131 °C
inhibition at 1 µM [2, 4]: 22%
inhibition at 10 µM [2, 5]: 88%

CN1CCC[C@H]1COc1cncc(-c2cccs2)c1 [Example 6, 5-(2-Thienyyl)-3-(1-methyl-2-(S)-pyrrolidinylmethoxy)pyridine Dihydrochloride]
Ki [1, 3]: 0.31 nM
inhibition at 1 µM [2, 4]: 28%

Cl.Cl.Clc1ncc(OC[C@@H]2CCCN2)cc1Br [Example 23, 5-Bromo-6-chloro-3-(2-(S)-pyrrolidinylmethoxy)pyridine Dihydrochloride]
melting point: 264 to 268 °C
inhibition at 1 µM [2, 4]: 27%

Cl.Cl.Cl.c1cc(CCc2cncc(OC[C@H]3CCCN3)c2)ccn1 [Example 87, 5-(2-(4-Pyridinyl)ethyl)-3-(2-(R)-pyrrolidinylmethoxy)pyridine Trihydrochloride]
melting point: 178 to 180 °C
Emax [2]: 40%

5-(5,5-Dimethyl-1,3-hexadienyl)-6-chloro-3-(2-(R)-pyrrolidinylmethoxy)pyridine Citric Acid Salt [Example 55]
Ki [1, 3]: 4.6 nM
EC50 [2]: > 10000 µM
IMR-32 maximal response [2]: 24.5%

C=Cc1cc(OC[C@@H]2CCCN2)cnc1C=C.Cl [Example 193, 5,6-Diethenyl-3-(2-(S)-pyrrolidinylmethoxy)pyridine Hydrochloride]
melting point: 186 to 188 °C
Emax [2]: 9.5%

Cl.Cl.Clc1ncc(OC[C@@H]2CCCN2)cc1-c1ccccc1 [Example 84, 5-Phenyl-6-chloro-3-(2-(S)-pyrrolidinylmethoxy)pyridine Dihydrochloride]
melting point: 75 to 80 °C
Emax [2]: 37%
